{"source": "paper PMC10489644", "about": "“In Vitro Evaluation of the Potential for Drug Interactions by Salidroside” (Nutrients, 2023)", "key": {"[1]": {"experiment": "Rat pharmacokinetics after IV or oral dosing", "assay_type": "in vivo, Male Sprague–Dawley rats", "conditions": "fa = fb/((1 − CL/Qh) × 100%)", "method": "An estimation of the maximum plasma concentration of salidroside in humans was made from the pharmacokinetics in rats after oral dosing and the recommended human daily dose of salidroside of 60 mg (two 30 mg capsules). Male Sprague–Dawley rats were dosed either with IV or orally at 12 mg/kg (N = 6/group). Salidroside was moderately cleared (21 mL/min/kg) and well absorbed orally."}, "CYP2B6": {"tested_on": "CYP2B6", "experiment": "in vitro", "conditions": "human; for Mean Fold Induction: 48 h", "method": "The sandwich medium was removed, and the hepatocytes were treated with incubation solutions containing salidroside (1, 5, 10, and 30 µM), vehicle (0.1% DMSO), or positive inducers in triplicate for 24 h after the cultures were established. The incubation solution was aspirated and replaced with incubation solution containing the same concentrations of salidroside, vehicle, or positive inducers for an additional 24 h. The total treatment period was 48 h. After the treatment period of 48 h, the incubation solution was aspirated. Hepatocytes were washed twice with pre-warmed HBSS containing 10 mM HEPES (HBSS I) and then the remaining solution was aspirated. Hepatocytes were washed once with pre-warmed HBSS I and incubated with 140 μL of RLT (lysis buffer from RNeasy 96 Kit) supplemented with 1% β-mercaptoethanol. Plates were then stored at −70 °C in a freezer until RNA analysis. Before RNA extraction, the frozen plate was thawed, and cell lysates were transferred to 96-well plates. RNA isolation was performed using a QIAcube RNA extraction system. Reverse transcription was performed to obtain cDNA. Quantification of the selective genes by real-time quantitative polymerase chain reaction (qPCR) was performed with TaqMan universal PCR Master Mix on the Bio-rad CFX384 TouchTM Real-Time PCR System. The relative change in the mRNA level of the selected target genes induced by each test compound was expressed in relation to the vehicle control sample, and fold changes in gene expression were determined by the ΔΔCt method."}, "CYP3A4": {"tested_on": "CYP3A4", "conditions": "human, 48 h"}, "CYP2D6": {"target": "CYP2D6 (Homo sapiens, UniProt P10635)", "sequence (P10635 whole entry)": "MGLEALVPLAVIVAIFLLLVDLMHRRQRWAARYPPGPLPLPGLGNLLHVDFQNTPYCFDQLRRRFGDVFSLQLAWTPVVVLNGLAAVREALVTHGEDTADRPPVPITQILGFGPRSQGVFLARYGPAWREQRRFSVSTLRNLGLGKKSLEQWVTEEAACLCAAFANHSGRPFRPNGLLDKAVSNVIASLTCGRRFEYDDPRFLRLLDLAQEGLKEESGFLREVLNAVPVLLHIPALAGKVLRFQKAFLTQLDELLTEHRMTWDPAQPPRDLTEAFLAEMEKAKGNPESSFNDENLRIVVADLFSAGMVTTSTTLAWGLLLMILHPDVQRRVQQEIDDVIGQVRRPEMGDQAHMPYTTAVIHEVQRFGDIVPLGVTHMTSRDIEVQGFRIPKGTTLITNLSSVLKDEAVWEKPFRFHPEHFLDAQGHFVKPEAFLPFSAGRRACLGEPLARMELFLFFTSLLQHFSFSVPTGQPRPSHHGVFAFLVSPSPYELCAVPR", "experiment": "biochemical", "protocol": "(§1) Test compound/controls working solution or DMSO were added in 238.5 µL of liver microsomes working solution, mixed well by pipetting several times and pre-incubated in a 37 °C shaking water bath for 5 min. Following the pre-incubation, 60 µL of NADPH working solution were added, mixed well by pipetting several times, and incubated in a 37 °C shaking water bath for 10 min. Following the incubation, 300 µL of quenching solution were immediately added and vortexed for ~20 s to mix. All samples were centrifuged at 4000 rpm for 15 min at 4 °C and then the supernatant was transferred for LC-MS/MS analysis. IC50 values were determined by the Hill slope equation using Graph Pad Prism.\n(§2) For competitive and time-dependent CYP inhibition, the peak area ratios (PAR) of analyte/internal standard were used to semi-quantitatively determine the concentration of acetaminophen (CYP1A2 activity), 4’-hydroxydiclofenac (CYP2C9), 4’-hydroxymephenytoin (CYP2C19), dextrorphan (CYP2D6), 1’-hydroxymidazolam (CYP3A4), 6β-hydroxytestosterone (CYP3A4), hydroxybupropion (CYP2B6), and N-desethylamodiaquine (CYP2C8), with terfenadine as the internal standard by LC-MS/MS method. The HPLC-MS system utilized an Acquity UPLC system and Sciex API 4000 mass spectrometer in ESI positive mode, with quantitation employing MRM. Samples were injected onto an Atlantis T3 5 μM column (2.1 x 50 mm). […]"}, "in vitro": {"experiment": "in vitro", "conditions": "Sprague-Dawley (SD), rat, plasma, pH 7.4", "protocol": "The experiment was performed using equilibrium dialysis with the two compartments separated by a semi-permeable membrane. Phosphate-buffered saline (PBS) (pH 7.4) was added to one side of the membrane and the plasma solution to the other side. After equilibration (5 h at 37 °C), samples were taken from both sides of the membrane, transferred to a new plate, and were matrix-matched by the addition of an appropriate amount of PBS to the plasma samples and blank plasma to the PBS samples. […] Incubations were performed in duplicate. Warfarin served as a control. The fraction unbound in plasma (fu,p) = Cb/Cp, where Cb represents the concentration in buffer and Cp the concentration in plasma at 5 h."}, "CYP2C8": {"target": "T1, CYP2C8 (Homo sapiens, UniProt P10632)", "T1 sequence (P10632 1-490)": "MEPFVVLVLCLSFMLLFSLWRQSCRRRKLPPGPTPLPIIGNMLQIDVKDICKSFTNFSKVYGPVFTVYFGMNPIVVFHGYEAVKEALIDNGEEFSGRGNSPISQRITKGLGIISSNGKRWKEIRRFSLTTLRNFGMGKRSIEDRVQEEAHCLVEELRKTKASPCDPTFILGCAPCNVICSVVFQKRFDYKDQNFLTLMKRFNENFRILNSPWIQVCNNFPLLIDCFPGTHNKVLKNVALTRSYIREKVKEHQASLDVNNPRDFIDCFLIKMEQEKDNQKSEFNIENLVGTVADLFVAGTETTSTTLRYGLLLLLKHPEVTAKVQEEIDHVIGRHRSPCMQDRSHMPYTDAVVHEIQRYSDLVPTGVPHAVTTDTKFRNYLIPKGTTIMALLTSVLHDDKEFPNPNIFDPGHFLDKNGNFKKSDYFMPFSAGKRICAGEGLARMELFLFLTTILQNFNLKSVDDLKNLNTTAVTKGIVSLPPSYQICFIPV", "experiment": "CYP direct inhibition in human liver microsomes", "protocol": "as §1, §2"}, "[2]": {"set-up": "method as in PMID 29796228", "conditions": "rat, cited from earlier work"}}, "note": "Like-named read-outs stand apart in the source and are kept apart here.", "data": [{"smiles": "OC[C@H]1O[C@@H](OCCc2ccc(O)cc2)[C@H](O)[C@@H](O)[C@@H]1O", "note": "[Salidroside]", "values": [{"measurement": "estimated oral absorption (fa)", "setting": "[1]", "value": 46, "unit": "%"}, {"measurement": "Mean Fold Induction", "setting": "CYP2B6; 1 µM", "value": 0.6, "unit": "fold"}, {"measurement": "Mean Fold Induction", "setting": "CYP2B6; 10 µM", "value": 1.1, "unit": "fold"}, {"measurement": "fold induction at 48 h, 1 µM", "setting": "CYP2B6; Mean Fold Induction", "value": 0.9}, {"measurement": "fold induction at 48 h, 3 µM", "setting": "CYP2B6; Mean Fold Induction", "value": 1.2}, {"measurement": "fold induction at 48 h, 10 µM", "setting": "CYP2B6; Mean Fold Induction", "value": 0.8}, {"measurement": "% Positive Control", "setting": "CYP3A4; 3 µM", "value": 0, "unit": "%"}, {"measurement": "% Positive Control", "setting": "CYP3A4; 10 µM", "value": 0, "unit": "%"}, {"measurement": "IC50", "setting": "CYP2D6", "value": "> 50", "unit": "µM"}, {"measurement": "fraction unbound at 5 h, 5 µM", "setting": "in vitro", "value": 0.856}, {"measurement": "IC50", "setting": "CYP2C8", "value": "> 50", "unit": "µM"}, {"measurement": "clearance", "setting": "[2]; 12 mg/kg IV", "value": 21, "unit": "mL/min/kg"}, {"measurement": "oral bioavailability (fb)", "setting": "[2]; 12 mg/kg oral", "value": 32.1, "unit": "%"}, {"measurement": "observed Cmax", "setting": "[2]; oral 12 mg/kg", "value": 4300, "unit": "ng/mL"}, {"measurement": "Cmax", "setting": "[2]; oral 12 mg/kg, read-out: observed Cmax", "value": 14.3, "unit": "µM"}]}]}
